Assay results as given in article PMC60990 (BMC Microbiology, 2001).

Legend:
[1] = target: T1, PfPP5 (Plasmodium falciparum, UniProt Q8WQR3); experiment: […]-phosphohistone dephosphorylation, phosphomolybdate extraction; assay type: biochemical; conditions: activator, 32P-phosphohistone, pH 7.5, 37°C
T1 sequence (Q8WQR3 1-594): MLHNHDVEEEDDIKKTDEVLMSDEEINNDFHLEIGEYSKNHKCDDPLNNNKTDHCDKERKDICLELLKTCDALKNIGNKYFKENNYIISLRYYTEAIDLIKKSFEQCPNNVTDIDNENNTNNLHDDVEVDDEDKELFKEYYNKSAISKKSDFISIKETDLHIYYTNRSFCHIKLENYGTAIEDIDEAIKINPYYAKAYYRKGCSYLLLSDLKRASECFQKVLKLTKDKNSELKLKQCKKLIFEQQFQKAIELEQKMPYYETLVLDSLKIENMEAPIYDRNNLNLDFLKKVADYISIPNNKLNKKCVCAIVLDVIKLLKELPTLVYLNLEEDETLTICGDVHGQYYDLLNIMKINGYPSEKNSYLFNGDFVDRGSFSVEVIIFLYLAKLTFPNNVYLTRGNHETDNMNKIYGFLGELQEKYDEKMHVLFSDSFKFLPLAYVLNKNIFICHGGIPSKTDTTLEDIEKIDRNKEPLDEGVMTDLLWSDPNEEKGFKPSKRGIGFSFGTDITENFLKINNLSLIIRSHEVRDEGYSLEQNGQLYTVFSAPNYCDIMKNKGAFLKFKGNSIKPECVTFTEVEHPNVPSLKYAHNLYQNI

[2] = target: T1, PfPP5; experiment: as above; assay type: biochemical; conditions: pH 7.5, 37°C

For `CCCCC/C=C\C/C=C\C/C=C\C/C=C\CCCC(=O)O` [arachidonic acid], the “fold stimulation of activity” value ([1]; about 70 μM fatty acid) was ~ 3 fold.

For `CCCCCCCC/C=C\CCCCCCCC(=O)O` [oleic acid], the “fold stimulation of activity” value ([1]; about 80 μM fatty acid) was ~ 3 fold.

In the case of `CCCCCCCCCCCCCCCCCC(=O)O` [stearic acid], the “32P-phosphohistone dephosphorylation, phosphomolybdate extraction” value [2] is reported as “stearic acid, a saturated fatty acid, did not appreciably stimulate PfPP5 activity”.
